Results as given in patent US6699676B1, “Uses of ouabain and ouabain-like molecules in apoptosis related pathologies” (Corporation du Centre de Recherche du Centre, Hospitalier …, priority 1999, dated 2004).

Tested on: VSMC-E1A
Assay: Intracellular Na+ and K+ content in VSMC-E1A
Format: cell-based, rat
Conditions: for Intracellular cations K^+i / Intracellular cations Na^+i: ouabain-treated VSMC-E1A, 1 mM, 6 hours
Procedure: FIG. 1. Kinetics of modulation of intracellular Na^+ (1, 2) and K^+ (3, 4) content by ouabain in VSMC-E1A (1, 3) and Jurkat cells (2, 4). Cells were preincubated for 24 hours in the presence of 10% calf serum in control medium consisting of 91 mM NaCl, 5 mM KCl, 0.9 mM NaH2PO4, 44 mM NaHCO3, 1.8 mM CaCl2, 0.8 mM MgCl2, 33 mM HEPES and 5 mM D-glucose (pH 7.4) with 2 μCi/ml of ^22Na or 0.5 μCi/ml ^86Rb, and 1 mM ouabain was added at the time interval indicated by the arrow. At specific time-points, intracellular Na^+ and K content + was measured as described in Experimental Procedures. Mean values±S.E. obtained in experiments performed in quadruplicate (VSMC-E1A) or triplicate (Jurkat cells) are given.
To estimate chromatin cleavage, cells were incubated for 1 hr in the presence of 10% calf serum (CS) in the control solution (DMEM, [Na^+]=137 mM; [K^+]=5 mM—line 1) or under equimolar substitution of NaCl by KCl ([Na^+]=14 mM; [K^+]=128 mM—line 2) with or without 1 mM ouabain and then for an additional 6 hours in the same media with or without CS. Intracellular Na^+ and K^+ content was measured as steady-state distribution of isotopes after 24 hours preincubation of cells in control Na^+-enriched solution containing 0.5 μCi/ml ^86Rb or 2 μCilml ^22Na, and additional 6 hours incubation in Na^+—(line 1) or K^+—(line 2) enriched medium, containing 10% CS and isotopes with the same specific activity with or without 1 mM ouabain. For more details see Experimental Procedures. Mean values±S.E. obtained in 3 experiments performed in triplicate (ion content) or quadruplicate (chromatin cleavage) are given. ★p<0.001 compared to ouabain-untreated cells.
Intracellular Na^+ and K^+ content. The intracellular content of exchangeable Na^+ and K^+ was measured as steady-state distribution of extra- and intracellular ^22Na and ^86Rb, as described previously in detail (22). Briefly, to establish the steady-state distribution of isotopes, VSMC growing in 12× (^22Na) or 24× (^86Rb) well plates or ˜10^6 Jurkat cells in suspension were preincubated for 24 hours in DMEM containing 10% calf serum and 0.5 μCi/ml ^86RbCl or 2 μCi/ml ^22NaCl and then treated in media with compositions shown in FIG. 1 and Tables 3 and 4 and with the same specific radioactivity. At the end of incubation, the VSMC were transferred on ice, washed 4 times with 2 ml of ice-cold medium W, containing 100 mM MgCl2 and 10 mM HEPES-tris buffer (pH 7.4), and lysed with SDS/EDTA mixture. One ml of Jurkat cell suspension was applied on a Whatman type C filter with the cells being washed with 3×5 ml aliquots of ice-cold medium W under negative pressure of 20-30 mm Hg. Radioactivity of the incubation medium and cell lysate was measured with a liquid scintillation analyzer and intracellular cation content was determined as A/am, where A was the radioactivity of the samples (cpm), a was the specific radioactivity of Na^+ and K^+(^86Rb) in the medium (cpm/nmol), and m was the protein content determined by Lowry methods.

C[C@@H]1O[C@@H](O[C@H]2C[C@@H](O)[C@]3(CO)[C@H]4[C@H](O)C[C@]5(C)[C@@H](C6=CC(=O)OC6)CC[C@]5(O)[C@@H]4CC[C@]3(O)C2)[C@H](O)[C@H](O)[C@H]1O [Ouabain, 1β,3β,5,11α,14,19-hexahydroxycard 20 [22]-enolide 3-[6-deoxy-α-L-mannopyrano-sidel]]
intracellular Na^+ content (VSMC-E1A, after 2 hours of 1 mM ouabain (from 38±8)): 283±30 nmol/mg proteins | K^+i content (VSMC-E1A, after 2 hours of 1 mM ouabain (from 405±41)): 131±19 nmol/mg proteins | Na^+i and K^+i content on prolongation of incubation (VSMC-E1A, ouabain for up to 5 hours versus 2 hours): did not significantly modify | Intracellular cations K^+i (medium [Na+]o=14, [K+]o=128 mM): 293 nmol/mg prot | Intracellular cations Na^+i (medium [Na+]o=14, [K+]o=128 mM): 51 nmol/mg prot | Intracellular cations K^+i (medium [Na+]o=137, [K+]o=5 mM): 99 nmol/mg prot | Intracellular cations Na^+i (medium [Na+]o=137, [K+]o=5 mM): 312 nmol/mg prot
